For this assay, the system named is log phase Staphylococcus aureus. Description: Chequerboard analysis of HT00800059 with HT230 or HT281 against log phase Staphylococcus aureus. The assay is classed as cell-based, Staphylococcus aureus (Oxford). Here is the method: Staphylococcus aureus (Oxford); Gram positive; Reference strain.
Log phase growth of methicilin sensitive Staphylococcus aureus (MSSA) was carried out as follows: • Bacteria were grown in 10 ml of nutrient broth (No. 2, (Oxoid)) overnight at 37° C. with continuous shaking at 120 rpm. The overnight cultures were diluted 1000× with iso-sensitest broth. The cultures were incubated at 37° C. with shaking for 1-2 hours to reach log CFU 6. Viability of the bacteria was estimated by colony forming unit (CFU) counts. From serial 10-fold dilutions of the experimental cultures, 100 μl samples were added to triplicate plates of nutrient agar plates (Oxoid) or blood agar plates (Oxoid). CFUs were counted after incubation of the plates at 37° C. for 24 hours.
Bacterial cultures: 10 μl of overnight cultures was added to 10 ml of fresh iso-sensitest broth to make the inoculation to 10^6 CFU/ml. 290 μl of the cell suspension was added to each well of the 96 well plate, which was incubated at 37° C. for 24 hours. 300 μl of iso-sensitest broth without bacterial cells were added to wells of the plate as a no bacterial control.
MIC determination: The optical density of the bacterial cells was read at 405 nm using a plate reader (Bio TEK). The MIC concentration was determined as the lowest concentration of drug which inhibits the bacterial growth.
HT230 was dissolved in DMSO to the stock concentration of 10 mg/ml.
HT281 was dissolved in DMSO to the stock concentration of 10 mg/ml.
HT00800059 was dissolved in H2O to the stock solution 30.07 mg/ml.
HT230 or HT281 (10 mg/ml) was firstly diluted to 0.96 mg/ml, then a serial of 2 fold dilution was carried out.
This was followed by the addition of 280 μl of log phase culture at 10^6 CFU/ml to make the final concentrations of each drug as shown.
In the above table, values in bold text are for HT00800059. Values in plain text are for HT230 or HT281. The numbers shown in each well are μg/ml.
Incubation of the compounds with the bacterial suspension was carried out for 24 hours. The kill effects of the drug combination were measured by optical density reading at 405 nm with a plate reader (Bio TEK).
The fractional inhibitory concentration (FIC) index was carried out as follows: (MIC of drug A, tested in combination)/(MIC of drug A, tested alone)+(MIC of drug B, tested in combination)/(MIC of drug B, tested alone). The interaction was defined as synergistic if the FIC index was <1, additive if the FIC index was =1 and antagonistic if the FIC index was >1.

Usually MIC stands for the lowest concentration found to suppress growth.

Molecules are shown by their SMILES. Structures can show the parent of a compound that is named as a salt.

For `CCCCOc1ccc(C(=O)CCN2CCCCC2)cc1` [HT00800059, dyclonine (1-(4-Butoxyphenyl)-3-(1-piperidinyl)-1-propanone) hydrochloride], the MIC after combination is, setting by setting: (HT230/HT00800059 chequerboard) 64 µg/mL; (HT281/HT00800059 chequerboard) 128 µg/mL. Besides, the MIC before combination amounted to 512 µg/mL (HT230/HT00800059 chequerboard) and 512 µg/mL (HT281/HT00800059 chequerboard). For the same compound, the MIC (Staphylococcus aureus, read-out: alone MIC) was 512 µg/mL. In addition, the “HT00800059 MIC in combination” value by setting is: (with HT230 at 2 μg/ml) 64 µg/mL; (with HT281 at 4 μg/ml) 128 µg/mL.
